Assay results from patent US7071168B2, “Anti-cancer compounds and methods related thereto” (The Regents of the University of Colorado, priority 1998, dated 2006).

What was measured:
SCLC strain SHP-77 = test: Colorimetric tetrazolium (MTT) assay for cell survival, SCLC strain SHP-77; type: cell-based, human
Summary of the method: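 MTT assay: cells seeded overnight, treated in triplicate across a concentration range for 4 days at 37 °C, 5% CO2. On day 5, MTT was added for 4 h; formazan was dissolved in acidified isopropanol and absorbance read.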

[1] = target: T1, cloned human bradykinin B2 receptors (Homo sapiens, UniProt P30411); test: Anti-bradykinin activity on cloned human B2 receptors (CHO cells, Cytosensor microphysiometer); type: cell-based; conditions: cloned human B2 receptors; pD2 for bradykinin is 11; higher numbers indicate higher potency
T1 sequence (P30411 1-391): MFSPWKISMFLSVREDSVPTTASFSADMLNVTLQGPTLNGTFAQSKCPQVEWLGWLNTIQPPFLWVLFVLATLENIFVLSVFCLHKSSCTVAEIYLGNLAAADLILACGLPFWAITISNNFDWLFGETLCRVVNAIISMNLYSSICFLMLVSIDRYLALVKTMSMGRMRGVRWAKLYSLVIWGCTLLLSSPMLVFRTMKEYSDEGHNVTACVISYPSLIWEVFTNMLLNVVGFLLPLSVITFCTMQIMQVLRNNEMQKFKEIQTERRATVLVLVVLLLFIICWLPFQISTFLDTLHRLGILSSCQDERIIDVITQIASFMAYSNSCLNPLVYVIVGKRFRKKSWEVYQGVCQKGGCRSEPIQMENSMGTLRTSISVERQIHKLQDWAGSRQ
Protocol: In general, Anti-bradykinin activity was determined by the classical guinea pig ileum assay and on Chinese hamster ovary (CHO) cells expressing cloned human bradykinin B2 receptors. Anti-tumor activity was determined on cultured human cancer cell lines using the standard tetrazolium (MTT) assay.
Chinese hamster ovary cells containing cloned and expressed human bradykinin B2 receptors were grown in cell cups of the Cytosensor microphysiometer in Ham's F-12 medium supplemented with sodium pyruvate and 10% FBS (Gibco 11765-054). For assay the cells were transferred to Ham's F-12 without bicarbonate or serum (Gibco 21700-075) and placed in the Cytosensor. Concentration-response curves were constructed to bradykinin in the presence or absence of new compounds.

[2] = tested on: bradykinin response of isolated guinea pig ileum; test: Anti-bradykinin activity on isolated guinea pig ileum
Summary of the method: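 Terminal ileum segments (25 mm) from overnight-fasted male Hartley guinea pigs, in Krebs' solution gassed with 95% O2/5% CO2 under 1 g tension, equilibrated 1 h. Bradykinin concentration-effect curves constructed without and with test compounds.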

[3] = isolated guinea pig ileum, pD2 of bradykinin is 7.4, higher numbers indicate higher potency
[4] = Table 1, higher numbers indicate higher potency

O=C(C=Cc1cccnc1)NC(Cc1ccc2ccccc2c1)C(=O)Nc1cccc(CO)c1 (centres unmarked) [M474]
MTT: ED50 for killing of SCLC strain SHP-77 in vitro (SCLC strain SHP-77; SCLC strain SHP-77 in vitro): 35 µM | HUMAN: pA2 for bradykinin antagonist potency on cloned human B2 receptors [1]: Inact

CN(C)c1ccc(CNC(=O)C(Cc2ccc3ccccc3c2)NC(=O)C=Cc2c(F)c(F)c(F)c(F)c2F)cc1 (centres unmarked) [M536]
MTT: ED50 for killing of SCLC strain SHP-77 in vitro (SCLC strain SHP-77; SCLC strain SHP-77 in vitro): 4 µM | HUMAN: pA2 for bradykinin antagonist potency on cloned human B2 receptors [1]: Inact

CN(C(=O)C(Cc1ccc(OCc2c(Cl)cccc2Cl)cc1)NC(=O)C=Cc1ccccc1)C1CC(C)(C)NC(C)(C)C1 (centres unmarked) [M628]
MTT: ED50 for killing of SCLC strain SHP-77 in vitro (SCLC strain SHP-77; SCLC strain SHP-77 in vitro): 1.6 µM | GPI: pA2 for bradykinin antagonist activity on isolated guinea pig ileum [2, 3]: 5.2

CN(C(=O)C(Cc1ccc(OCc2c(Cl)cccc2Cl)cc1)NC(=O)C=Cc1c(F)c(F)c(F)c(F)c1F)C1CC(C)(C)NC(C)(C)C1 (centres unmarked) [M592]
MTT: ED50 for killing of SCLC strain SHP-77 in vitro (SCLC strain SHP-77; SCLC strain SHP-77 in vitro): 1.5 µM | GPI: pA2 for bradykinin antagonist activity on isolated guinea pig ileum [2, 3]: 4.9

CC1(C)CC(NC(=O)Cc2ccc(NC(=NC3CCCCC3)NC3CCCCC3)cc2)CC(C)(C)N1 [M266]
MTT: ED50 for killing of SCLC strain SHP-77 in vitro (SCLC strain SHP-77; SCLC strain SHP-77 in vitro): 42 µM | GPI: pA2 for bradykinin antagonist activity on isolated guinea pig ileum [2, 3]: 4.8

CN(C)c1ccc(CNC(=O)C(Cc2ccc(F)cc2)NC(=O)C=Cc2c(F)c(F)c(F)c(F)c2F)cc1 (centres unmarked) [M832]
MTT: ED50 for killing of SCLC strain SHP-77 in vitro (SCLC strain SHP-77; SCLC strain SHP-77 in vitro): 47 µM | GPI: pA2 for bradykinin antagonist activity on isolated guinea pig ileum [2, 3]: 4.6

CN(C)c1ccc(C=CC(=O)NC(Cc2ccc(OCc3c(Cl)cccc3Cl)cc2)C(=O)N(C)C2CC(C)(C)NC(C)(C)C2)cc1.O=C(O)C(F)(F)F (centres unmarked) [M630, Dmac-OC2Y-Matp.TFA]
MTT: ED50 for killing of SCLC strain SHP-77 in vitro (SCLC strain SHP-77; SCLC strain SHP-77 in vitro): 1.6 µM | GPI: pA2 for bradykinin antagonist activity on isolated guinea pig ileum [2, 3]: 5.0

Ac-Darg-Arg-Aud-DF5F-Oic-Arg [M868]
MTT: ED50 for killing of SCLC strain SHP-77 in vitro (SCLC strain SHP-77; Table 1, SHP-77, MTT, 4 days): 55 µM | GPI: pA2 for bradykinin antagonist activity on isolated guinea pig ileum [2, 4]: 6.5

CC1(C)CC(NC(=O)[C@H](Cc2ccc3ccccc3c2)NC(=O)C2=CN3CCC2CC3)CC(C)(C)N1 [M252]
MTT: ED50 for killing of SCLC strain SHP-77 in vitro (SCLC strain SHP-77; SCLC strain SHP-77 in vitro): Inact | GPI: pA2 for bradykinin antagonist activity on isolated guinea pig ileum [2, 3]: 4.8

c[DArg-Arg-Add-Ser-DIgl-PFF-Arg] [M882]
MTT: ED50 for killing of SCLC strain SHP-77 in vitro (SCLC strain SHP-77; Table 3, cyclic peptides): 4.5 µM | GPI: pA2 for bradykinin antagonist activity on isolated guinea pig ileum ([2]; Table 3, cyclic peptides): Inact

c[DArg-Arg-Ava-Ser-DF5F-Oic-Arg] [M908]
MTT: ED50 for killing of SCLC strain SHP-77 in vitro (SCLC strain SHP-77; Table 3, cyclic peptides): 40 µM | GPI: pA2 for bradykinin antagonist activity on isolated guinea pig ileum ([2]; Table 3, cyclic peptides): 4.9

DDD-(DArg-Arg-Aud-DTic-hPhe-Arg)2 [M770]
MTT: ED50 for killing of SCLC strain SHP-77 in vitro (SCLC strain SHP-77; Table 1, SHP-77, MTT, 4 days): 8 µM | GPI: pA2 for bradykinin antagonist activity on isolated guinea pig ileum [2, 4]: Inact

COC(=O)C1(NC(=O)[C@H](Cc2ccc3ccccc3c2)NC(=NC2CCCCC2)NC2CCCCC2)CC(C)(C)NC(C)(C)C1 [M244A]
MTT: ED50 for killing of SCLC strain SHP-77 in vitro (SCLC strain SHP-77; SCLC strain SHP-77 in vitro): 12 µM | GPI: pA2 for bradykinin antagonist activity on isolated guinea pig ileum [2, 3]: 5.0

CC1(C)CC(NC(=O)[C@H](Cc2ccc3ccccc3c2)NC(=N)CCCCCCCCCCCCC(=N)N[C@@H](Cc2ccc3ccccc3c2)C(=O)NC2CC(C)(C)NC(C)(C)C2)CC(C)(C)N1 [M254]
MTT: ED50 for killing of SCLC strain SHP-77 in vitro (SCLC strain SHP-77; SCLC strain SHP-77 in vitro): 5 µM | GPI: pA2 for bradykinin antagonist activity on isolated guinea pig ileum [2, 3]: 5.1

CC1(C)CC(NC(=O)[C@H](Cc2c(F)c(F)c(F)c(F)c2F)NC(=NC2CCCCC2)NC2CCCCC2)CC(C)(C)N1 [M240]
MTT: ED50 for killing of SCLC strain SHP-77 in vitro (SCLC strain SHP-77; SCLC strain SHP-77 in vitro): 32 µM | GPI: pA2 for bradykinin antagonist activity on isolated guinea pig ileum [2, 3]: 5.1

F5c-DArg-Arg-Aud-DTic-Oic-Arg [M788]
MTT: ED50 for killing of SCLC strain SHP-77 in vitro (SCLC strain SHP-77; Table 1, SHP-77, MTT, 4 days): 9 µM | GPI: pA2 for bradykinin antagonist activity on isolated guinea pig ileum [2, 4]: 5

CC1(C)CC(NC(=O)C(Cc2ccc3ccccc3c2)NC(=O)OC(C)(C)C)CC(C)(C)N1 (centres unmarked) [M288A]
MTT: ED50 for killing of SCLC strain SHP-77 in vitro (SCLC strain SHP-77; SCLC strain SHP-77 in vitro): >85 µM | GPI: pA2 for bradykinin antagonist activity on isolated guinea pig ileum [2, 3]: 5.2

c[DArg-Arg-Ava-Ser-DIgl-PFF-Arg] [M902]
MTT: ED50 for killing of SCLC strain SHP-77 in vitro (SCLC strain SHP-77; Table 3, cyclic peptides): 30 µM | GPI: pA2 for bradykinin antagonist activity on isolated guinea pig ileum ([2]; Table 3, cyclic peptides): 5.5

CC1(C)CC(NC(=O)C(Cc2ccc3ccccc3c2)NC(=O)c2nc(Cl)c(Cl)c(N)c2Cl)CC(C)(C)N1 (centres unmarked) [M302]
MTT: ED50 for killing of SCLC strain SHP-77 in vitro (SCLC strain SHP-77; SCLC strain SHP-77 in vitro): 3.5 µM | GPI: pA2 for bradykinin antagonist activity on isolated guinea pig ileum [2, 3]: 5.2
